Assay: Dissolution time / dissolution rate of the raw material in a solvent (stereoscopic microscope, heating stage)
Format: physicochemical
Conditions: heating stage 50±5° C., order of solvents; for Dissolution rate of the raw material (Arranged in order from the fastest to the slowest): 25 mg compound in 2 mL solvent
Procedure: The dissolution time of the raw material of febuxostat in a solvent was examined as described below. […] First, a heating stage ([…], Mettler) was installed in a stereoscopic microscope (SZX16, Olympus Corporation), and the surface temperature of the heating stage was maintained at 50±5° C. 25 mg of febuxostat (product code […], Tokyo Chemical Industry Co., Ltd.) was weighed into a flat laboratory dish (φ32 mm×16 mm), and 2 mL of the solvent was weighed and added to the laboratory dish, which was then immediately covered with a glass lid. The laboratory dish was placed on the heating stage. […] As a result, the dissolution time was ethanol<2-propanol<acetonitrile (in other words, the dissolution rate was ethanol>2-propanol>acetonitrile). […] The dissolution times of the raw materials of loxoprofen and diclofenac in the solvents were also examined in the same manner as febuxostat.

| SMILES | Dissolution rate of the raw material (Arranged in order from the fastest to the slowest) | Dissolution rate of the raw material (Arranged in order from the fastest to the slowest) (listed as febuxostat) | dissolution time (25 mg in 2 mL solvent, time until no undissolved material observed) |
| --- | --- | --- | --- |
| O=C(O)Cc1ccccc1Nc1c(Cl)cccc1Cl [Diclofenac, diclofenac] | Ethanol, Ethanol/IPA^※1 | – | – |
| Cc1nc(-c2ccc(OCC(C)C)c(C#N)c2)sc1C(=O)O [Febuxostat, febuxostat] | Ethanol, 2-propanol, Acetonitrile | ethanol>2-propanol>acetonitrile | ethanol<2-propanol<acetonitrile |
| CC(C(=O)O)c1ccc(CC2CCCC2=O)cc1 (centres unmarked) [Loxoprofen, loxoprofen] | Ethanol, 2-propanol | – | – |
